According to patent publication US10918645B2 (LIFEARC, priority 2016, dated 2021):

Experiments:
Assay type in all cases: biochemical
Settings in all cases: 1 μM inhibitor concentration
SGK1 = SGK1 (Homo sapiens (Human), UniProt O00141); assay: SGK1 kinase selectivity assay
Experimental: SGK (5-20 mU diluted in 20 mM MOPS pH 7.5, 1 mM EDTA, 0.01% Brij35, 5% glycerol, 0.1% b-mercaptoethanol, 1 mg/ml BSA) is assayed against a modified Crosstide peptide […] in a final volume of 25.5 μl containing 8 mM MOPS pH 7.0, 0.2 mM EDTA, 30 μM substrate peptide, 10 mM magnesium acetate and 0.02 mM [33P-g-ATP] (50-1000 cpm/pmole) and incubated for 30 min at room temperature. Assays are stopped by addition of 5 μl of 0.5 M (3%) orthophosphoric acid and then harvested onto P81 Unifilter plates with a wash buffer of 50 mM orthophosphoric acid.

PKCa = PKCa (Homo sapiens (Human), UniProt P17252); assay: PKCa kinase selectivity assay
Experimental: PKCa (5-20 mU diluted in 20 mM Hepes pH 7.4, 0.03% Triton X-100) is assayed against Histone H1 in the presence of PtdSerine and DAG (0.1 mg/ml. and 10 μg/ml) and 0.1 mM CaCl2. The assay is carried out in a final volume of 25.5 μl containing 20 mM Hepes pH 7.4, 0.03% Triton X-100, 0.1 mg/ml Histone H1, 10 mM magnesium acetate and 0.02 mM[33P-g-ATP] (50-1000 cpm/pmole) and incubated for 30 min at room temperature. Assays are stopped by addition of 5 μl of 0.5 M (3%) orthophosphoric acid and then harvested onto P81 Unifilter plates with a wash buffer of 50 mM orthophosphoric acid.
PtdSer/DAG preparation:—PtdSer stock=10 mg/ml in MeOH/Chloroform (1:2). Dry down required amount. Resuspend in appropriate volume of 10 mM Hepes pH 7.4. Vortex and briefly sonicate. (2×10-15 seconds at 10-15 seconds apart). DAG stock=10 mg/ml in MeOH/chloroform (1:2). Dry down required amount. Add sonicated PtdSer solution. Vortex and sonicate.

PRAK = PRAK (Homo sapiens (Human), UniProt Q8IW41); assay: PRAK kinase selectivity assay
Experimental: PRAK (5-20 mU diluted in 50 mM Na-b-glycerophosphate pH 7.5, 0.1 mM EGTA, 0.1% b-mercaptoethanol, 1 mg/ml BSA) is assayed against […] in a final volume of 25.5 μl containing 50 mM Na-b-glycerophosphate pH 7.5, 0.1 mM EGTA, 30 μM substrate peptide, 10 mM magnesium acetate and 0.02 mM [33P-g-ATP] (50-1000 cpm/pmole) and incubated for 30 min at room temperature. Assays are stopped by addition of 5 μl of 0.5 M (3%) orthophosphoric acid and then harvested onto P81 Unifilter plates with a wash buffer of 50 mM orthophosphoric acid.

CAMK1 = CAMK1 (Homo sapiens (Human), UniProt Q14012); assay: CAMK1 kinase selectivity assay
Experimental: 5-20 mU of CAMK-1 (diluted in 50 mM Tris (pH 7.5), 0.1 mM EGTA, 1 mg/ml BSA, 0.1%, b-Mercaptoethanol) is assayed against substrate peptide ([…]) in a final volume of 25.5 μl containing 50 mM Tris (pH 7.5), 0.1 mM EGTA, 0.5 mM CaCl2, 0.3 μM calmodulin, 0.1%, b-Mercaptoethanol, 300 μM substrate peptide, 10 mM magnesium acetate and 0.05 mM [33P-g-ATP](500-1000 cpm/pmole) and incubated for 30 mins at room temperature. Assays are stopped by addition of […] of 0.5M (3%) orthophosphoric acid. Assays are harvested onto P81 Unifilter plates using a wash buffer of 50 mM orthophosphoric acid.

PLK1 = PLK1 (Homo sapiens (Human), UniProt P53350); assay: PLK1 kinase selectivity assay
Experimental: (§1) PLK1 (5-20 mU diluted in 50 mM Tris pH 7.5, 0.1 mM EGTA, 0.1% b-mercaptoethanol, 1 mg/ml BSA, 100 μM Vanadate) is assayed against a substrate peptide ([…]) in a final volume of 25.5 μl containing 50 mM Tris pH 7.5, 0.05% b-mercaptoethanol, 10 μM Vanadate, 300 μM substrate peptide, 10 mM magnesium acetate and 0.005 mM [33P-g-ATP] (50-1000 cpm/pmole) and incubated for 30 min at room temperature. Assays are stopped by addition of 5 μl of 0.5 M (3%) orthophosphoric acid and then harvested onto P81 Unifilter plates with a wash buffer of 50 mM orthophosphoric acid.
as §1, with “100 µM” for “100 μM”, “[…]” for “10 μM”

MLK3 = MLK3 (Homo sapiens (Human), UniProt Q16584); assay: MLK3 kinase selectivity assay
Experimental: MLK3 (5-20 mU diluted in 50 mM Tris pH 7.5, 0.1 mM EGTA, 0.1% 0-mercaptoethanol, 1 mg/ml BSA) is assayed against MBP in a final volume of 25.5 μl containing 50 mM Tris pH 7.5, 0.1 mM EGTA, 0.33 mg/ml MBP, 10 mM magnesium acetate and 0.02 mM [33P-γ-ATP] (50-1000 cpm/pmole) and incubated for 30 min at room temperature. Assays are stopped by addition of 5 μl of 0.5 M (3%) orthophosphoric acid and then harvested onto P81 Unifilter plates with a wash buffer of 50 mM orthophosphoric acid.

VEG-FR = VEG-FR kinase selectivity assay
Experimental: VEG-FR (5-20 mU diluted in 50 mM Tris pH 7.5, 0.1 mM EGTA, 1 mg/ml BSA) is assayed against a substrate peptide ([…]) in a final volume of 25.5 μl containing 50 mM Tris pH 7.5, 300 µM substrate peptide, 10 mM magnesium acetate and 0.02 mM [33P-g-ATP] (50-1000 cpm/pmole) and incubated for 30 min at room temperature. Assays are stopped by addition of 5 μl of 0.5 M (3%) orthophosphoric acid and then harvested onto P81 Unifilter plates with a wash buffer of 50 mM orthophosphoric acid.

Chain of PRAK (Q8IW41 whole entry, species assumed): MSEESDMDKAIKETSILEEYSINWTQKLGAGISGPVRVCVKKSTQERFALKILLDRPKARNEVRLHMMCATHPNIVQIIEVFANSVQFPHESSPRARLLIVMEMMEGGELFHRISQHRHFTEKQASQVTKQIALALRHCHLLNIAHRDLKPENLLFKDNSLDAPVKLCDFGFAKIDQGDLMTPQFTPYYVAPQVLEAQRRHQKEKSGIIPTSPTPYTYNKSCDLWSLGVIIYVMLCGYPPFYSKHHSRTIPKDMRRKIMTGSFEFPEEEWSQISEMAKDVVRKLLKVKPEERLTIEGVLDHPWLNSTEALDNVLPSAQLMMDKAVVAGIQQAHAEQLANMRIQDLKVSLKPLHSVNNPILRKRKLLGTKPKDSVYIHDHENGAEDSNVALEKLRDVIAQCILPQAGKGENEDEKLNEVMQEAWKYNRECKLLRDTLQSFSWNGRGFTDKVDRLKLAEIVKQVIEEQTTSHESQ
Chain of MLK3 (Q16584 whole entry, species assumed): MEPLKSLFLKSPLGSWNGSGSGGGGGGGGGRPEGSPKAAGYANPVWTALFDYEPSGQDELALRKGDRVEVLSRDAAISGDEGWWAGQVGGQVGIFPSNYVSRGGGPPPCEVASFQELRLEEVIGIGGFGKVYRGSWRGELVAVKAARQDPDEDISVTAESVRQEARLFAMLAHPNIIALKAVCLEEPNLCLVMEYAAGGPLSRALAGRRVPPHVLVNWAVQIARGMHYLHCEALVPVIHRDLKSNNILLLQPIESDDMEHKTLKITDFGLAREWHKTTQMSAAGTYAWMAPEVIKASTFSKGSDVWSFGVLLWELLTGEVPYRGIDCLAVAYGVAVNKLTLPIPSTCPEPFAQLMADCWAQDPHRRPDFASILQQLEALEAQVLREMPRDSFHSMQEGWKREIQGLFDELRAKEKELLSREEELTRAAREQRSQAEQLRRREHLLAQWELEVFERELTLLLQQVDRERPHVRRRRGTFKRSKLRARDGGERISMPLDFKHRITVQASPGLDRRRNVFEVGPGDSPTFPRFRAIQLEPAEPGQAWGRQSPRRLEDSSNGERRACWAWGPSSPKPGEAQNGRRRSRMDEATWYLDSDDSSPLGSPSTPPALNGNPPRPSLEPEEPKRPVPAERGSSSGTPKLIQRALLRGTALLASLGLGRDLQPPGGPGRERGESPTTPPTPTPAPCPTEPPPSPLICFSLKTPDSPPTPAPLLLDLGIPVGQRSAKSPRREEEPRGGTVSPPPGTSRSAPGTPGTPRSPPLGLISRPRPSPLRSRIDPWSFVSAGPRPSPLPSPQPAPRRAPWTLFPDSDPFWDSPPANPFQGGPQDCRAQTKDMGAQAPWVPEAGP
Chain of SGK1 (O00141 whole entry, species assumed): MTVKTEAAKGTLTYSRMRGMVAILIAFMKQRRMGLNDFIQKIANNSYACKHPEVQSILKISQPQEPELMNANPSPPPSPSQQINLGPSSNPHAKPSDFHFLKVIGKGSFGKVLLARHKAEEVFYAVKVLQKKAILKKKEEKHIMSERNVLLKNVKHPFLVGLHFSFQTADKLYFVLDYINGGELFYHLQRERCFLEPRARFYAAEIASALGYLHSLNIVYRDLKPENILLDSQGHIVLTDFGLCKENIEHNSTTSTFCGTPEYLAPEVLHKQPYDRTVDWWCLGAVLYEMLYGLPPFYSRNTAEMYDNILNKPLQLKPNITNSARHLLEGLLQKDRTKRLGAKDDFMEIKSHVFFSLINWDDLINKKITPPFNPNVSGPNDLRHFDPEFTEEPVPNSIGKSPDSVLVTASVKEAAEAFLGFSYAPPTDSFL
Chain of PLK1 (P53350 whole entry, species assumed): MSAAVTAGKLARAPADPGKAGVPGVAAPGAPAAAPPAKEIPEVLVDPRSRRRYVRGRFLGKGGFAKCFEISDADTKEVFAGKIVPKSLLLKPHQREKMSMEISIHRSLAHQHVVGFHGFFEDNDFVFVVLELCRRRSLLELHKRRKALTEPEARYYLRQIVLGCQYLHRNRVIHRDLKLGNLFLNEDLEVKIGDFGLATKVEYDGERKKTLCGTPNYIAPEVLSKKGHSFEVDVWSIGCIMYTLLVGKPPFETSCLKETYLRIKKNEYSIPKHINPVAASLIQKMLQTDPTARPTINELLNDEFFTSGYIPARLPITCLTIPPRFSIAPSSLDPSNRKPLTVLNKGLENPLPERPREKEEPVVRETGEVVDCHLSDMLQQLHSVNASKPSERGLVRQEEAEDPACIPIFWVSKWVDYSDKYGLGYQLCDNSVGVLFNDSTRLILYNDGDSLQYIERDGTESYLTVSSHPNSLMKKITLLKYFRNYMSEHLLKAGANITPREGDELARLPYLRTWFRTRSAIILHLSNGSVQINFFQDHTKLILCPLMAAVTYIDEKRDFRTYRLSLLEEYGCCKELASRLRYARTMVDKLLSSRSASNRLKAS

| Structure (SMILES) | percentage inhibition of SGK1 (SGK1) | percentage inhibition of PKCa (PKCa) | percentage inhibition of PRAK (PRAK) | percentage inhibition of CAMK1 (CAMK1) | percentage inhibition of PLK1 (PLK1) | percentage inhibition of MLK3 (MLK3) | percentage inhibition of VEG-FR (VEG-FR) |
| --- | --- | --- | --- | --- | --- | --- | --- |
| c1cc2[nH]nc3c2c(n1)N(C1CCOCC1)CCC3 [Example 29, 6-(tetrahydro-2H-pyran-4-yl)-6,7,8,9-tetrahydro-2H-1,2,5,6-tetraazabenzo[cd]azulene] | 18 percentage | 11 percentage | 0 percentage | 0 percentage | 0 percentage | 8 percentage | 9 percentage |
| c1cc2[nH]nc3c2c(n1)N(C1CCC1)CCC3 [Example 22, 6-cyclobutyl-6,7,8,9-tetrahydro-2H-1,2,5,6-tetraazabenzo[cd]azulene] | 13 percentage | 0 percentage | 0 percentage | 0 percentage | 4 percentage | 7 percentage | 0 percentage |
| CN1CCC(N2Cc3ccccc3-c3n[nH]c4ccnc2c34)CC1 [Example 55] | 10 percentage | 0 percentage | 18 percentage | 25 percentage | 28 percentage | 6 percentage | 19 percentage |
| CC(C)n1ncc2c1CN(C1CCN(C)CC1)c1nccc3[nH]nc-2c13 [Example 68] | 23 percentage | 2 percentage | 13 percentage | 45 percentage | 21 percentage | 4 percentage | 42 percentage |
| c1cc2[nH]nc3c2c(n1)N(C1CCCC1)CCC3 [Example 23, 6-cyclopentyl-6,7,8,9-tetrahydro-2H-1,2,5,6-tetraazabenzo[cd]azulene] | 0 percentage | 0 percentage | 0 percentage | 0 percentage | 3 percentage | 4 percentage |  |
